Molecular target: T1, sGC α1/β1 heterodimer (Homo sapiens, UniProt Q02108+Q02153)
T1 construct: expressed in transfected cells; host or cells: CHO-K1 (clone #7, CHO-K1/sGC)
T1 sequence (Q02108 1-690): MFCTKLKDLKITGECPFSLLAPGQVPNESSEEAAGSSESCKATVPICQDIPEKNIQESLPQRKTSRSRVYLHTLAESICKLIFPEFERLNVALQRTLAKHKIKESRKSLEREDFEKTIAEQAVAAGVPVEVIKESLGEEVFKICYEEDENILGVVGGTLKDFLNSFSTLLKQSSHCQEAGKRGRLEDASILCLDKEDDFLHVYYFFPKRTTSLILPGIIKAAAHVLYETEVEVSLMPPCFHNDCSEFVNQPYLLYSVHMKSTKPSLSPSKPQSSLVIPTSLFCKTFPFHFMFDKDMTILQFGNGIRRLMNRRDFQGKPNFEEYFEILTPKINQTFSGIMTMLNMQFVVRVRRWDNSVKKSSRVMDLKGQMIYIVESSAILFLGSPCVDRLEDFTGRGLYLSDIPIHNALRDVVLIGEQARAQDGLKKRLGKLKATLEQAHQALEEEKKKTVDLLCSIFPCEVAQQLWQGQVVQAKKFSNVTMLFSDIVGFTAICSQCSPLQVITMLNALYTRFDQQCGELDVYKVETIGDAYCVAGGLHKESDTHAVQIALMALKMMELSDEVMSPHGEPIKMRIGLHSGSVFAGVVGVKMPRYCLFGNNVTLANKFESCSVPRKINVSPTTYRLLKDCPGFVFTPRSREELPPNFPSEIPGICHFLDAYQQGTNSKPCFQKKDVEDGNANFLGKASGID
T1 sequence (Q02153 1-619): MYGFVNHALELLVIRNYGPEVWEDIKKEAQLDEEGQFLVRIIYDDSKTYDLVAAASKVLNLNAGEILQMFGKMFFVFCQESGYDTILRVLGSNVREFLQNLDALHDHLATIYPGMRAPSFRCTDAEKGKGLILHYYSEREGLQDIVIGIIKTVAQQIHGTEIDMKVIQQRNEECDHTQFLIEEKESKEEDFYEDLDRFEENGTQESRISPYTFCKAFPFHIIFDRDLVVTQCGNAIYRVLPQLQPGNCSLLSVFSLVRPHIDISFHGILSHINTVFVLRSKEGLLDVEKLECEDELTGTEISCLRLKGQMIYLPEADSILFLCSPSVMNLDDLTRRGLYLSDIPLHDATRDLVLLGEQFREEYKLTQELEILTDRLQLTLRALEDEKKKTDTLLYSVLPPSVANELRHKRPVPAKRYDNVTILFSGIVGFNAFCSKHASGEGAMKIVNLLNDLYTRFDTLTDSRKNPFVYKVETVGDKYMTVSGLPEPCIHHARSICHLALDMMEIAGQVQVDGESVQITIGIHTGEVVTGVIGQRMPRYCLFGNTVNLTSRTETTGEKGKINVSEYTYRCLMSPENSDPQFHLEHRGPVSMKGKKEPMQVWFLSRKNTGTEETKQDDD
Assay: Cell-based sGC functional assay (CASA assay): cGMP generation in CHO-K1/sGC cells, HTRF detection
Details: for Emax: CHO-K1, percent activation relative to standard Compound A in CHO-K1/sGC cells, read-out: % Act.; for EC50: inflection point (IP) of cGMP generation in CHO-K1/sGC cells, 4P fit, activity expressed as percentage of Compound A
Method in brief: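 cGMP was quantified by HTRF after 1 hr, 37° C exposure of thawed CHO-K1 cells expressing sGC α1/β1 to compound, with or without 1 μM DETA-NO. IBMX (0.5 mM) blocked cGMP breakdown, and DMSO was 2.5% final. Percent of standard Compound A's maximal cGMP was fitted (4P) for inflection point.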

Emax [%]	EC50 [µM]	Compound
109	0.012	CC1(c2ccc(F)cc2)C(=O)Nc2nc(-c3cn4ccnc4c(Cc4ccccc4)n3)nc(N)c21 (stereo not drawn) [Example 93A, 4-amino-2-(8-benzylimidazo[1,2-a]pyrazin-6-yl)-5-(4-fluorophenyl)-5-methyl-5H-pyrrolo[2,3-d]pyrimidin-6(7H)-one]
101	0.141	Cc1nc2c(CCC(F)(F)C(F)(F)F)nc(-c3nc(N)c4c(n3)NC(=O)C4(C)c3ccc(F)cc3)cn2c1Br (stereo not drawn) [Example 266A, 4-amino-2-(3-bromo-2-methyl-8-(3,3,4,4,4-pentafluorobutyl)imidazo[1,2-a]pyrazin-6-yl)-5-(4-fluorophenyl)-5-methyl-5H-pyrrolo[2,3-d]pyrimidin-6(7H)-one]
115	0.196	CCn1cc(C2(C)C(=O)Nc3nc(-c4cn5ccnc5c(Cc5ccc(F)cc5)n4)nc(N)c32)nn1 (stereo not drawn) [Example 64A, 4-amino-5-(1-ethyl-1H-1,2,3-triazol-4-yl)-2-(8-(4-fluorobenzyl)imidazo[1,2-a]pyrazin-6-yl)-5-methyl-5H-pyrrolo[2,3-d]pyrimidin-6(7H)-one]
96	0.671	CN1CCN(c2nc(-c3cn4ccnc4c(CCC(F)(F)C(F)(F)F)n3)nc3c2C(C)(c2ccc(F)cn2)C(=O)N3)CC1 (stereo not drawn) [Example 295B, 5-(5-fluoropyridin-2-yl)-5-methyl-4-(4-methylpiperazin-1-yl)-2-(8-(3,3,4,4,4-pentafluorobutyl)imidazo[1,2-a]pyrazin-6-yl)-5H-pyrrolo[2,3-d]pyrimidin-6(7H)-one]
110	0.014	CC1(c2ccc(Cl)c(F)c2)C(=O)Nc2nc(-c3cn4ccnc4c(CCCC(F)(F)F)n3)nc(N)c21 (stereo not drawn) [Example 204B, 4-amino-5-(4-chloro-3-fluorophenyl)-5-methyl-2-(8-(4,4,4-trifluorobutyl)imidazo[1,2-a]pyrazin-6-yl)-5H-pyrrolo[2,3-d]pyrimidin-6(7H)-one]
158	0.147	CC1CN(c2nc(-c3cn4ccnc4c(CCC(F)(F)C(F)(F)F)n3)nc3c2C(C)(c2ccc(F)cc2)C(=O)N3)C1 (stereo not drawn) [Example 305A, 5-(4-fluorophenyl)-5-methyl-4-(3-methylazetidin-1-yl)-2-(8-(3,3,4,4,4-pentafluorobutyl)imidazo[1,2-a]pyrazin-6-yl)-5H-pyrrolo[2,3-d]pyrimidin-6(7H)-one]
108	0.302	Nc1nc(-c2cn3ccnc3c(CCC(F)(F)C(F)(F)F)n2)nc2c1C(c1cccnc1)(C1CC1)C(=O)N2 (single isomer, unassigned) [Example 359B, 4-amino-5-cyclopropyl-2-(8-(3,3,4,4,4-pentafluorobutyl)imidazo[1,2-a]pyrazin-6-yl)-5-(pyridin-3-yl)-5H-pyrrolo[2,3-d]pyrimidin-6(7H)-one]
96	0.302	CCCCc1nc(-c2nc(N)c3c(n2)NC(=O)C3(c2cnc(C)cn2)C2CC2)cn2ccnc12 (single isomer, unassigned) [Example 352B, 4-amino-2-(8-butylimidazo[1,2-a]pyrazin-6-yl)-5-cyclopropyl-5-(5-methylpyrazin-2-yl)-5H-pyrrolo[2,3-d]pyrimidin-6(7H)-one]
93	0.634	CC(C)c1nnc(C2(C3CC3)C(=O)Nc3nc(-c4cn5ccnc5c(CCC(F)(F)C(F)(F)F)n4)nc(N)c32)s1 (stereo not drawn) [Example 55A, 4-amino-5-cyclopropyl-5-(5-isopropyl-1,3,4-thiadiazol-2-yl)-2-(8-(3,3,4,4,4-pentafluorobutyl)imidazo[1,2-a]pyrazin-6-yl)-5H-pyrrolo[2,3-d]pyrimidin-6(7H)-one]
126	0.237	CC(C)c1nc(C2(C)C(=O)Nc3nc(-c4cn5ccnc5c(CCC(F)(F)C(F)(F)F)n4)nc(N)c32)no1 (single isomer, unassigned) [Example 321B, 4-amino-5-(5-isopropyl-1,2,4-oxadiazol-3-yl)-5-methyl-2-(8-(3,3,4,4,4-pentafluorobutyl)imidazo[1,2-a]pyrazin-6-yl)-5H-pyrrolo[2,3-d]pyrimidin-6(7H)-one]
119	0.324	CC(C)Cc1nc(-c2nc(N)c3c(n2)NC(=O)C3(C)c2ccc(OC(F)F)cn2)cn2ccnc12 (stereo not drawn) [Example 130A, 4-amino-5-(5-(difluoromethoxy)pyridin-2-yl)-2-(8-isobutylimidazo[1,2-a]pyrazin-6-yl)-5-methyl-5H-pyrrolo[2,3-d]pyrimidin-6(7H)-one]
89	0.772	Nc1nc(-c2cn3ccnc3c(CCC(F)(F)C(F)(F)F)n2)nc2c1C(c1nnc(C3CC3)o1)(C1CC1)C(=O)N2 (stereo not drawn) [Example 56B, 4-amino-5-cyclopropyl-5-(5-cyclopropyl-1,3,4-oxadiazol-2-yl)-2-(8-(3,3,4,4,4-pentafluorobutyl)imidazo[1,2-a]pyrazin-6-yl)-5H-pyrrolo[2,3-d]pyrimidin-6(7H)-one]
111	0.022	CC1(c2ccc(F)cc2)C(=O)Nc2nc(-c3cn4cc(C(F)(F)F)nc4c(Cc4cccc(F)c4)n3)nc(N)c21 (stereo not drawn) [Example 149A, 4-amino-2-(8-(3-fluorobenzyl)-2-(trifluoromethyl)imidazo[1,2-a]pyrazin-6-yl)-5-(4-fluorophenyl)-5-methyl-5H-pyrrolo[2,3-d]pyrimidin-6(7H)-one]
112	0.13	CC1(c2ccc(F)cc2)C(=O)Nc2nc(-c3cn4cc(C(F)(F)F)nc4c(Cc4ccc(F)cc4)n3)nc(N)c21 (stereo not drawn) [Example 155A, 4-amino-2-(8-(4-fluorobenzyl)-2-(trifluoromethyl)imidazo[1,2-a]pyrazin-6-yl)-5-(4-fluorophenyl)-5-methyl-5H-pyrrolo[2,3-d]pyrimidin-6(7H)-one]
91	0.212	CC1(c2ccc(F)cc2)C(=O)Nc2nc(-c3cn4c(N)cnc4c(CCC(F)(F)C(F)(F)F)n3)nc(N)c21 (stereo not drawn) [Example 267A, 4-Amino-2-(3-amino-8-(3,3,4,4,4-pentafluorobutyl)imidazo[1,2-a]pyrazin-6-yl)-5-(4-fluorophenyl)-5-methyl-5H-pyrrolo[2,3-d]pyrimidin-6(7H)-one]
75	0.217	Nc1nc(-c2cn3cc(C(F)(F)F)nc3c(Cc3ccccc3F)n2)nc2c1C(C(=O)NC1CC1)(C1CC1)C(=O)N2 (single isomer, unassigned) [Example 45B, 4-amino-N,5-dicyclopropyl-2-(8-(2-fluorobenzyl)-2-(trifluoromethyl)imidazo[1,2-a]pyrazin-6-yl)-6-oxo-6,7-dihydro-5H-pyrrolo[2,3-d]pyrimidine-5-carboxamide]
121	0.161	CC1(c2ccc(C(F)(F)F)cn2)C(=O)Nc2nc(-c3cn4ccnc4c(CC4CCC4)n3)nc(N)c21 (stereo not drawn) [Example 119B, 4-amino-2-(8-(cyclobutylmethyl)imidazo [1,2-a]pyrazin-6-yl)-5-methyl-5-(5-(trifluoromethyl)pyridin-2-yl)-5H-pyrrolo[2,3-d]pyrimidin-6(7H)-one]
96	0.385	CC1(c2ccc(OC(F)(F)F)cc2)C(=O)Nc2nc(-c3cn4ccnc4cn3)nc(N)c21 (stereo not drawn) [Example 145A, 4-amino-2-(imidazo[1,2-a]pyrazin-6-yl)-5-methyl-5-(4-(trifluoromethoxy)phenyl)-5H-pyrrolo[2,3-d]pyrimidin-6(7H)-one]
